pIC50: −log10 of the molar value.
Legend:
Test in all cases: cells
Details in all cases: Homo sapiens
[1] = system: NCI-H747; assay type: functional, cell-based;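 note: growth inhibition of human NCI-H747 cells, read out by a cell viability assay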
Description: SANGER: Inhibition of human NCI-H747 cell growth in a cell viability assay.

[2] = system: C2BBe1; assay type: functional, cell-based;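 note: growth inhibition of C2BBe1 cells, read out through a viability assay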
Description: SANGER: Inhibition of human C2BBe1 cell growth in a cell viability assay.

[3] = system: J-RT3-T3-5; assay type: functional, cell-based;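 note: cell viability assay measuring growth inhibition of human J-RT3-T3-5 cells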
Description: SANGER: Inhibition of human J-RT3-T3-5 cell growth in a cell viability assay.

[4] = system: ATN-1; assay type: functional, cell-based;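 note: growth inhibition of human ATN-1 cells, read out with a cell viability assay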
Description: SANGER: Inhibition of human ATN-1 cell growth in a cell viability assay.

[5] = system: SF-126; assay type: functional, cell-based;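 note: growth inhibition of human SF126 cells, read out with a cell viability assay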
Description: SANGER: Inhibition of human SF126 cell growth in a cell viability assay.

[6] = system: SK-MEL-2; assay type: functional, cell-based;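 note: growth inhibition of human SK-MEL-2 cells measured with a cell viability assay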
Description: SANGER: Inhibition of human SK-MEL-2 cell growth in a cell viability assay.

[7] = system: LNCaP-Clone-FGC; assay type: functional, cell-based
Description: SANGER: Inhibition of human LNCaP-Clone-FGC cell growth in a cell viability assay.

[8] = system: EW-3; assay type: functional, cell-based;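 note: cell viability assay read-out, IC50 reflects inhibition of growth of the EW-3 cells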
Description: SANGER: Inhibition of human EW-3 cell growth in a cell viability assay.

[9] = system: QIMR-WIL; assay type: functional, cell-based;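 note: growth inhibition of QIMR-WIL cells, read out with a cell viability assay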
Description: SANGER: Inhibition of human QIMR-WIL cell growth in a cell viability assay.

[10] = system: RH-1; assay type: functional, cell-based;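 note: growth inhibition of human RH-1 cells, read out with a cell viability assay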
Description: SANGER: Inhibition of human RH-1 cell growth in a cell viability assay.

[11] = system: NEC8; assay type: functional, cell-based;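 note: growth inhibition of human NEC8 cells, read out by a cell viability assay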
Description: SANGER: Inhibition of human NEC8 cell growth in a cell viability assay.

[12] = system: A704; assay type: functional, cell-based;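 note: growth inhibition of human A704 cells, read out with a cell viability assay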
Description: SANGER: Inhibition of human A704 cell growth in a cell viability assay.

[13] = system: HD-MY-Z; assay type: functional, cell-based;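 note: growth inhibition of HD-MY-Z cells, read out with a cell viability assay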
Description: SANGER: Inhibition of human HD-MY-Z cell growth in a cell viability assay.

[14] = system: KU812 cell line; assay type: functional, cell-based;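 note: growth inhibition of KU812 cells, read out with a cell viability assay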
Description: SANGER: Inhibition of human KU812 cell growth in a cell viability assay.

[15] = system: EKVX; assay type: functional, cell-based;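 note: growth inhibition of human EKVX cells, read out with a cell viability assay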
Description: SANGER: Inhibition of human EKVX cell growth in a cell viability assay.

[16] = system: KNS-81-FD; assay type: functional, cell-based;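 note: growth inhibition of KNS-81-FD cells, read out with a cell viability assay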
Description: SANGER: Inhibition of human KNS-81-FD cell growth in a cell viability assay.

[17] = system: TE-5; assay type: functional, cell-based;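 note: inhibition of cell growth, read out by a cell viability assay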
Description: SANGER: Inhibition of human TE-5 cell growth in a cell viability assay.

[18] = system: COLO-800; assay type: functional, cell-based;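 note: growth inhibition of COLO-800 cells, read out with a cell viability assay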
Description: SANGER: Inhibition of human COLO-800 cell growth in a cell viability assay.

[19] = system: no-11; assay type: functional, cell-based;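 note: growth inhibition of human NO-11 cells, read out with a cell viability assay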
Description: SANGER: Inhibition of human no-11 cell growth in a cell viability assay.

[20] = system: HDLM-2; assay type: functional, cell-based;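 note: cell viability assay measuring suppression of HDLM-2 proliferation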
Description: SANGER: Inhibition of human HDLM-2 cell growth in a cell viability assay.

[21] = system: TE-12; assay type: functional, cell-based;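 note: growth inhibition of TE-12 cells, read out by a cell viability assay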
Description: SANGER: Inhibition of human TE-12 cell growth in a cell viability assay.

[22] = system: SW684; assay type: functional, cell-based;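 note: growth inhibition of human SW684 cells, measured by a cell viability assay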
Description: SANGER: Inhibition of human SW684 cell growth in a cell viability assay.

[23] = system: SW872; assay type: functional, cell-based;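 note: growth inhibition of SW872 cells, read out by a viability assay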
Description: SANGER: Inhibition of human SW872 cell growth in a cell viability assay.

[24] = system: AM-38; assay type: functional, cell-based;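 note: growth inhibition of AM-38 cells of human origin, read out by a cell viability assay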
Description: SANGER: Inhibition of human AM-38 cell growth in a cell viability assay.

[25] = system: NB10; assay type: functional, cell-based;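 note: growth inhibition of NB10 cells, read out by a cell viability assay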
Description: SANGER: Inhibition of human NB10 cell growth in a cell viability assay.

[26] = system: TE-1; assay type: functional, cell-based;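 note: growth inhibition of the human TE-1 cell line, read out with a cell viability assay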
Description: SANGER: Inhibition of human TE-1 cell growth in a cell viability assay.

[27] = system: D-263MG; assay type: functional, cell-based
Description: SANGER: Inhibition of human D-263MG cell growth in a cell viability assay.

[28] = system: LAMA-84; assay type: functional, cell-based;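 note: growth inhibition of LAMA-84 cells, read out with a cell viability assay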
Description: SANGER: Inhibition of human LAMA-84 cell growth in a cell viability assay.

[29] = system: GI-1; assay type: functional, cell-based;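 note: growth inhibition of human GI-1 cells, measured with a cell viability readout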
Description: SANGER: Inhibition of human GI-1 cell growth in a cell viability assay.

[30] = system: KM-H2; assay type: functional, cell-based;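 note: growth inhibition of KM-H2 cells, read out by a cell viability assay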
Description: SANGER: Inhibition of human KM-H2 cell growth in a cell viability assay.

[31] = system: SHP77; assay type: functional, cell-based, SHP-77;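 note: growth inhibition of human SHP-77 cells measured by a cell viability assay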
Description: SANGER: Inhibition of human SHP-77 cell growth in a cell viability assay.

[32] = system: NOS-1; assay type: functional, cell-based;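 note: growth inhibition of the human NOS-1 cell line, read out with a cell viability assay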
Description: SANGER: Inhibition of human NOS-1 cell growth in a cell viability assay.

[33] = system: NCI-H69; assay type: functional, cell-based;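 note: growth inhibition of the cell line, read out with a cell viability assay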
Description: SANGER: Inhibition of human NCI-H69 cell growth in a cell viability assay.

[34] = system: IST-MEL1; assay type: functional, cell-based;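 note: growth inhibition of the cell line, read out with a cell viability assay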
Description: SANGER: Inhibition of human IST-MEL1 cell growth in a cell viability assay.

[35] = system: COLO-684; assay type: functional, cell-based
Description: SANGER: Inhibition of human COLO-684 cell growth in a cell viability assay.

[36] = system: HAL-01; assay type: functional, cell-based;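 note: growth inhibition of human HAL-01 cells, read out with a cell viability assay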
Description: SANGER: Inhibition of human HAL-01 cell growth in a cell viability assay.

[37] = system: GAK; assay type: functional, cell-based;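 note: cell growth inhibition read out by a cell viability assay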
Description: SANGER: Inhibition of human GAK cell growth in a cell viability assay.

[38] = system: COLO-824; assay type: functional, cell-based
Description: SANGER: Inhibition of human COLO-824 cell growth in a cell viability assay.

[39] = system: SW 954; assay type: functional, cell-based;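 note: growth inhibition of SW954 human cancer cells, read out as cell viability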
Description: SANGER: Inhibition of human SW954 cell growth in a cell viability assay.

[40] = system: SH-4; assay type: functional, cell-based;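 note: growth inhibition of SH-4 cells, read out with a cell viability assay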
Description: SANGER: Inhibition of human SH-4 cell growth in a cell viability assay.

[41] = system: U-87 MG; assay type: functional, cell-based, U-87MG ATCC;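 note: growth inhibition of the cells measured with a viability assay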
Description: SANGER: Inhibition of human U-87-MG cell growth in a cell viability assay.

[42] = system: COR-L88; assay type: functional, cell-based;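 note: growth inhibition of COR-L88 cells, read out with a cell viability assay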
Description: SANGER: Inhibition of human COR-L88 cell growth in a cell viability assay.

[43] = system: Lu-65; assay type: functional, cell-based;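 note: growth inhibition of Lu-65 cancer cells, read out by a cell viability assay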
Description: SANGER: Inhibition of human LU-65 cell growth in a cell viability assay.

[44] = system: MPP-89; assay type: functional, cell-based;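 note: growth inhibition of human MPP-89 cells, read out with a cell viability assay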
Description: SANGER: Inhibition of human MPP-89 cell growth in a cell viability assay.

[45] = system: EW-13; assay type: functional, cell-based;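 note: growth inhibition of EW-13 cells, read out with a cell viability assay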
Description: SANGER: Inhibition of human EW-13 cell growth in a cell viability assay.

[46] = system: HEL; assay type: functional, cell-based;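 note: growth inhibition of HEL cells, read out with a cell viability assay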
Description: SANGER: Inhibition of human HEL cell growth in a cell viability assay.

[47] = system: COLO-668; assay type: functional, cell-based
Description: SANGER: Inhibition of human COLO-668 cell growth in a cell viability assay.

[48] = system: EW-11; assay type: functional, cell-based;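 note: growth inhibition of human EW-11 cells, measured with a cell viability assay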
Description: SANGER: Inhibition of human EW-11 cell growth in a cell viability assay.

[49] = system: KE-37; assay type: functional, cell-based;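 note: growth inhibition of KE-37 cells, read out with a cell viability assay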
Description: SANGER: Inhibition of human KE-37 cell growth in a cell viability assay.

[50] = system: SBC-1; assay type: functional, cell-based;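 note: cell viability assay measuring growth inhibition of the SBC-1 cell line, IC50 being the concentration that halves growth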
Description: SANGER: Inhibition of human SBC-1 cell growth in a cell viability assay.

[51] = system: HCC2218; assay type: functional, cell-based;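 note: cell viability assay read-out, with IC50 given as the concentration that inhibits growth of the cell line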
Description: SANGER: Inhibition of human HCC2218 cell growth in a cell viability assay.

[52] = system: no-10; assay type: functional, cell-based;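 note: growth inhibition of no-10 cells, read out with a cell viability assay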
Description: SANGER: Inhibition of human no-10 cell growth in a cell viability assay.

[53] = system: ES8; assay type: functional, cell-based;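 note: growth inhibition of human ES8 cells, read out with a cell viability assay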
Description: SANGER: Inhibition of human ES8 cell growth in a cell viability assay.

[54] = system: NCI-H1770; assay type: functional, cell-based;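 note: growth inhibition of NCI-H1770 cells determined with a viability readout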
Description: SANGER: Inhibition of human NCI-H1770 cell growth in a cell viability assay.

[55] = system: SNU1; assay type: functional, cell-based
Description: SANGER: Inhibition of human NCI-SNU-1 cell growth in a cell viability assay.

[56] = system: DOHH-2; assay type: functional, cell-based
Description: SANGER: Inhibition of human DOHH-2 cell growth in a cell viability assay.

[57] = system: ETK-1; assay type: functional, cell-based
Description: SANGER: Inhibition of human ETK-1 cell growth in a cell viability assay.

[58] = system: NCI-H23; assay type: functional, cell-based
Description: SANGER: Inhibition of human NCI-H23 cell growth in a cell viability assay.

[59] = system: MHH-NB-11; assay type: functional, cell-based
Description: SANGER: Inhibition of human MHH-NB-11 cell growth in a cell viability assay.

[60] = system: EW-16; assay type: functional, cell-based
Description: SANGER: Inhibition of human EW-16 cell growth in a cell viability assay.

[61] = system: K5; assay type: functional, cell-based
Description: SANGER: Inhibition of human K5 cell growth in a cell viability assay.

[62] = system: SCH; assay type: functional, cell-based
Description: SANGER: Inhibition of human SCH cell growth in a cell viability assay.

[63] = system: A498; assay type: functional, cell-based
Description: SANGER: Inhibition of human A498 cell growth in a cell viability assay.

[64] = system: TGBC1TKB; assay type: functional, cell-based
Description: SANGER: Inhibition of human TGBC1TKB cell growth in a cell viability assay.

[65] = system: ES6; assay type: functional, cell-based
Description: SANGER: Inhibition of human ES6 cell growth in a cell viability assay.

[66] = system: IST-MES1; assay type: functional, cell-based
Description: SANGER: Inhibition of human IST-MES1 cell growth in a cell viability assay.

Cn1cc(/C=C2\C(=O)Nc3cccnc32)c2ccccc21
pIC50 [1]: < 5.70 | pIC50 [2]: < 5.70 | pIC50 [3]: < 5.70 | pIC50 [4]: < 5.70 | pIC50 [5]: < 5.70 | pIC50 [6]: < 5.70 | pIC50 [7]: < 5.70 | pIC50 [8]: < 5.70 | pIC50 [9]: < 5.70 | pIC50 [10]: < 5.70 | pIC50 [11]: 5.91 | pIC50 [12]: < 5.70 | pIC50 [13]: < 5.70 | pIC50 [14]: < 5.70 | pIC50 [15]: < 5.70 | pIC50 [16]: < 5.70 | pIC50 [17]: < 5.70 | pIC50 [18]: < 5.70 | pIC50 [19]: < 5.70 | pIC50 [20]: < 5.70 | pIC50 [21]: < 5.70 | pIC50 [22]: < 5.70 | pIC50 [23]: < 5.70 | pIC50 [24]: < 5.70 | pIC50 [25]: < 5.70 | pIC50 [26]: < 5.70 | pIC50 [27]: < 5.70 | pIC50 [28]: < 5.70 | pIC50 [29]: < 5.70 | pIC50 [30]: < 5.70 | pIC50 [31]: < 5.70 | pIC50 [32]: < 5.70 | pIC50 [33]: < 5.70 | pIC50 [34]: < 5.70 | pIC50 [35]: < 5.70 | pIC50 [36]: < 5.70 | pIC50 [37]: < 5.70 | pIC50 [38]: < 5.70 | pIC50 [39]: < 5.70 | pIC50 [40]: < 5.70 | pIC50 [41]: < 5.70 | pIC50 [42]: < 5.70 | pIC50 [43]: < 5.70 | pIC50 [44]: < 5.70 | pIC50 [45]: < 5.70 | pIC50 [46]: < 5.70 | pIC50 [47]: < 5.70 | pIC50 [48]: < 5.70 | pIC50 [49]: < 5.70 | pIC50 [50]: < 5.70 | pIC50 [51]: < 5.70 | pIC50 [52]: < 5.70 | pIC50 [53]: < 5.70 | pIC50 [54]: < 5.70 | pIC50 [55]: < 5.70 | pIC50 [56]: < 5.70 | pIC50 [57]: < 5.70 | pIC50 [58]: < 5.70 | pIC50 [59]: < 5.70 | pIC50 [60]: < 5.70 | pIC50 [61]: < 5.70 | pIC50 [62]: < 5.70 | pIC50 [63]: < 5.70 | pIC50 [64]: < 5.70 | pIC50 [65]: < 5.70 | pIC50 [66]: < 5.70

N#C/C(=C1/Nc2ccccc2S1)c1ccnc(NCCc2cccnc2)n1
pIC50 [1]: 5.22 | pIC50 [2]: < 5.10 | pIC50 [3]: < 5.10 | pIC50 [4]: < 5.10 | pIC50 [5]: < 5.10 | pIC50 [6]: < 5.10 | pIC50 [7]: < 5.10 | pIC50 [8]: < 5.10 | pIC50 [9]: < 5.10 | pIC50 [10]: < 5.10 | pIC50 [11]: < 5.10 | pIC50 [12]: < 5.10 | pIC50 [13]: < 5.10 | pIC50 [14]: 5.18 | pIC50 [15]: < 5.10 | pIC50 [16]: < 5.10 | pIC50 [17]: < 5.10 | pIC50 [18]: < 5.10 | pIC50 [19]: < 5.10 | pIC50 [20]: < 5.10 | pIC50 [21]: 5.85 | pIC50 [22]: < 5.10 | pIC50 [23]: 5.88 | pIC50 [24]: < 5.10 | pIC50 [25]: < 5.10 | pIC50 [26]: < 5.10 | pIC50 [27]: < 5.10 | pIC50 [28]: < 5.10 | pIC50 [29]: 5.43 | pIC50 [30]: < 5.10 | pIC50 [31]: < 5.10 | pIC50 [32]: 5.23 | pIC50 [33]: < 5.10 | pIC50 [34]: < 5.10 | pIC50 [35]: < 5.10 | pIC50 [36]: < 5.10 | pIC50 [37]: 5.17 | pIC50 [38]: < 5.10 | pIC50 [39]: < 5.10 | pIC50 [40]: < 5.10 | pIC50 [41]: < 5.10 | pIC50 [42]: < 5.10 | pIC50 [43]: < 5.10 | pIC50 [44]: 5.28 | pIC50 [45]: < 5.10 | pIC50 [46]: 5.15 | pIC50 [47]: 5.35 | pIC50 [48]: < 5.10 | pIC50 [49]: < 5.10 | pIC50 [50]: < 5.10 | pIC50 [51]: < 5.10 | pIC50 [52]: < 5.10 | pIC50 [53]: < 5.10 | pIC50 [54]: < 5.10 | pIC50 [55]: < 5.10 | pIC50 [56]: < 5.10 | pIC50 [57]: < 5.10 | pIC50 [58]: < 5.10 | pIC50 [59]: < 5.10 | pIC50 [60]: 5.30 | pIC50 [61]: < 5.10 | pIC50 [62]: < 5.10 | pIC50 [63]: < 5.10 | pIC50 [64]: < 5.10 | pIC50 [65]: 5.33 | pIC50 [66]: < 5.10
